2 compounds from patent publication US20160017206A1, “METHODS FOR IMMEDIATE SOURING CONTROL IN GASES OR FLUIDS PRODUCED FROM SULFIDOGENIC RESERVOIR SYSTEMS” (THE REGENTS OF THE UNIVERSITY OF CALIFORNIA, priority 2013, published 2016) can be followed below.

Type in all cases: cell-based
Assay [1] has as its system marine sediment slurry microcosms. The assay is described as follows: Sulfide inhibition in marine sediment slurry microcosms. As to conditions: chlorate added with Dechloromarinus strain NSS, incubation over 250 hours. From the text: In the absence of chlorate and Dechloromarinus strain NSS sulfide is readily produced.
Assay [2] deals with Desulfovibrio vulgaris. The assay is described as follows: Inhibition of sulfidogenesis (sulfate reduction to sulfide) by D. vulgaris cultures. As to the method:
Twelve tubes of basal anaerobic medium containing 15 mM lactate and 15 mM sulfate were inoculated with an active culture of D. vulgaris and incubated for 6 hours at 30° C., until a visible increase in optical density was observed. After six hours, the tubes were further inoculated with A. suillum and 15 mM chlorate prior to incubation overnight at 30° C., as outlined in Table 2.

Assay [3] has as its system A. suillum. The assay is described as follows: Fe(II) oxidation by A. suillum in anoxic culture with nitrate as electron acceptor. As to conditions: 10 mM Fe(II) as FeCl2, 10 mM acetate as cosubstrate, within 7 days. The method, then:
A. suillum readily oxidized (10 mM) Fe(II) in the form of FeCl2 with nitrate as the electron acceptor under strict anaerobic conditions (FIG. 8). With 10 mM acetate as a cosubstrate, more than 70% of the added iron was oxidized within 7 days. No Fe(II) was oxidized in the absence of cells or if the nitrate was omitted (data not shown). Fe(II) oxidation was initiated after complete mineralization of acetate to CO2, and growth was not associated with this metabolism.
When acetate was added as an additional carbon and energy source, cell density increased concomitant with acetate oxidation. Fe(II) oxidation occurred after acetate had been depleted and the culture had reached stationary phase (FIG. 8).

Take `[O-][Cl+2]([O-])O` [chlorate]: in assay [1], the “sulfide production in marine sediment slurry microcosms (FIG. 12)” value is “sulfide inhibition”. In addition, the “sulfide production by D. vulgaris relative to control cells incubated without chlorate” value in assay [2] (15 mM chlorate alone, 24 hours, lactate as electron donor) turned out to be 49%. Also, in assay [2] (15 mM chlorate together with A. suillum, 24-hour incubation), the “sulfide production by D. vulgaris relative to control cells incubated in the absence of A. suillum and chlorate” value came to 17%. The “antimicrobial activity against D. vulgaris” value in assay [2] (relatively low concentrations (15 mM)) is given as “has antimicrobial activity against D. vulgaris”. For the same compound, in assay [2] (treated with A. suillum (PS) and chlorate at 48 hours, relative to untreated control), the “time course of sulfidogenesis by D. vulgaris (FIG. 14)” value was “immediate inhibition of sulfide production and removal of sulfide from the medium”.
`[Cl][Fe][Cl]` [FeCl2, Ferrous chloride]: the added iron oxidized result in assay [3] is on record as “more than 70%”.
